Data published in paper PMC8429728, “TNK1 is a ubiquitin-binding and 14-3-3-regulated kinase that can be targeted to block tumor growth” (Nature Communications, 2021).
Where two headings read alike, the source gives them in different places.

Key:
Assay in all cases: biochemical
Parameters in all cases: Reaction Biology 371-kinase panel at Km ATP, per cent enzyme activity relative to DMSO, single dose in duplicate
HIPK2 = HIPK2 (Homo sapiens, UniProt Q9H2X6); details: duplicate measurements, Km ATP
Outline: (§1)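 In vitro selectivity panel: 371 kinases, inhibitor at 300 nM; % activity vs DMSO; IC50 by variable-slope sigmoidal fit, bottom = 0.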

CAMK2b = CAMK2b (Homo sapiens, UniProt Q13554); details: duplicate measurements, Km ATP
Outline: as §1

ROCK2 = ROCK2 (Homo sapiens, UniProt O75116); details: duplicate measurements, Km ATP; read-out: % Enzyme Activity (relative to DMSO controls) / TP-0005801 (0.3µM) / Data 1
Outline: as §1

DYRK3 = DYRK3 (Homo sapiens, UniProt O43781); details: duplicate measurements, Km ATP
Outline: as §1

TEC = TEC (Homo sapiens, UniProt P42680); details: duplicate measurements, Km ATP
Outline: as §1

c-MET = c-MET (Homo sapiens, UniProt P08581); details: duplicate measurements, Km ATP
Outline: as §1

CK1a1 = target: T1, CK1a1 (Homo sapiens, UniProt P48729); details: duplicate measurements, Km ATP
T1 construct: gene CSNK1A1
Outline: as §1

TAOK3/JIK = TAOK3/JIK (Homo sapiens, UniProt Q9H2K8); details: duplicate measurements, Km ATP
Outline: as §1

TRKA = target: T2, TRKA (Homo sapiens, UniProt P04629); details: duplicate measurements, Km ATP
T2 construct: gene NTRK1
Outline: as §1

JNK3 = target: T3, JNK3 (Homo sapiens, UniProt P53779); details: duplicate measurements, Km ATP
T3 construct: gene MAPK10
Outline: as §1

IRR/INSRR = IRR/INSRR (Homo sapiens, UniProt P14616); details: duplicate measurements, Km ATP
Outline: as §1

NEK4 = NEK4 (Homo sapiens, UniProt P51957); details: duplicate measurements, Km ATP; read-out: % Enzyme Activity (relative to DMSO controls) / TP-0005801 (0.3µM) / Data 1
Outline: as §1

MARK3 = MARK3 (Homo sapiens, UniProt P27448); details: duplicate measurements, Km ATP
Outline: as §1

FAK/PTK2 = FAK/PTK2 (Homo sapiens, UniProt Q05397); details: duplicate measurements, Km ATP
Outline: as §1

CK1epsilon = target: T4, CK1epsilon (Homo sapiens, UniProt P49674); details: duplicate measurements, Km ATP
T4 construct: gene CSNK1E
Outline: as §1

PKN1/PRK1 = PKN1/PRK1 (Homo sapiens, UniProt Q16512); details: duplicate measurements, Km ATP
Outline: as §1

RSK1 = target: T5, RSK1 (Homo sapiens, UniProt Q15418); details: duplicate measurements, Km ATP
T5 construct: gene RPS6KA1
Outline: as §1

MEKK2 = target: T6, MEKK2 (Homo sapiens, UniProt Q9Y2U5); details: duplicate measurements, Km ATP
T6 construct: gene MAP3K2
Outline: as §1

[1] = read-out: % Enzyme Activity (relative to DMSO controls) / TP-0005801 (0.3µM) / Data 1
[2] = read-out: % Enzyme Activity (relative to DMSO controls) / TP-0005801 (0.3µM) / Data 2

Chain of CAMK2b (Q13554 whole entry): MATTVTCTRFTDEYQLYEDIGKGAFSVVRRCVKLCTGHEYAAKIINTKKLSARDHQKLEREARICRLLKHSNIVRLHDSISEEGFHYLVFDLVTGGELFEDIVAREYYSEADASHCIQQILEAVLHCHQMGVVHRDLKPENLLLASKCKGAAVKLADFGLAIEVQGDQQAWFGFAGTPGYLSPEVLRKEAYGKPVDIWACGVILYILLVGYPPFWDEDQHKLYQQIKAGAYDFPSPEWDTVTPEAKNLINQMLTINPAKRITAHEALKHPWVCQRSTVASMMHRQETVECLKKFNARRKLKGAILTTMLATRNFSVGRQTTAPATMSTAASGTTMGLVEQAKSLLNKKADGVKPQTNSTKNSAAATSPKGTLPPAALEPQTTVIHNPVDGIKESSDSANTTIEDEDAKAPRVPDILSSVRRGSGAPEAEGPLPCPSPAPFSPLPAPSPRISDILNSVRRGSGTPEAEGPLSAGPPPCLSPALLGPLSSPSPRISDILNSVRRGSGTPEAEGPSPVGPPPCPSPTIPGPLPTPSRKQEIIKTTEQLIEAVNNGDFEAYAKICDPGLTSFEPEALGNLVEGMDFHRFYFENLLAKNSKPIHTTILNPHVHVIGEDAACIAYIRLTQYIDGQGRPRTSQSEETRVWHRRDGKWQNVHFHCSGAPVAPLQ
Chain of TEC (P42680 whole entry): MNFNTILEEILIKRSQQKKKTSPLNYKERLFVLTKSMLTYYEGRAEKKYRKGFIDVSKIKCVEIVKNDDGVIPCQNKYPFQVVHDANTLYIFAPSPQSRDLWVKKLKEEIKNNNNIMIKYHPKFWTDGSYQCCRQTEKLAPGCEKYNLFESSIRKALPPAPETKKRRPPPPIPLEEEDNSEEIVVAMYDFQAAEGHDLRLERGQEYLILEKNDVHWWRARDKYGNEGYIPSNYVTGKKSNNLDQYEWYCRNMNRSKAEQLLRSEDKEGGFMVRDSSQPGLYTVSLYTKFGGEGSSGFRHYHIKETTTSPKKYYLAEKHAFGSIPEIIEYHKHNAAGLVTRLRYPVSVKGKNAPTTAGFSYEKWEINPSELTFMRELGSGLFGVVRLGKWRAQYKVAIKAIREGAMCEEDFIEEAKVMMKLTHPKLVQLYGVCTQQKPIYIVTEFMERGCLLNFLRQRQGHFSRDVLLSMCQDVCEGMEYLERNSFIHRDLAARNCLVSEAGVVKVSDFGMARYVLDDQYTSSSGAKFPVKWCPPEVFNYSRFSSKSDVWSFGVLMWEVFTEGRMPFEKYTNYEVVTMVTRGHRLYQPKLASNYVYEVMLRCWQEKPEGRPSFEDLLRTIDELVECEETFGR
Chain of HIPK2 (Q9H2X6 whole entry): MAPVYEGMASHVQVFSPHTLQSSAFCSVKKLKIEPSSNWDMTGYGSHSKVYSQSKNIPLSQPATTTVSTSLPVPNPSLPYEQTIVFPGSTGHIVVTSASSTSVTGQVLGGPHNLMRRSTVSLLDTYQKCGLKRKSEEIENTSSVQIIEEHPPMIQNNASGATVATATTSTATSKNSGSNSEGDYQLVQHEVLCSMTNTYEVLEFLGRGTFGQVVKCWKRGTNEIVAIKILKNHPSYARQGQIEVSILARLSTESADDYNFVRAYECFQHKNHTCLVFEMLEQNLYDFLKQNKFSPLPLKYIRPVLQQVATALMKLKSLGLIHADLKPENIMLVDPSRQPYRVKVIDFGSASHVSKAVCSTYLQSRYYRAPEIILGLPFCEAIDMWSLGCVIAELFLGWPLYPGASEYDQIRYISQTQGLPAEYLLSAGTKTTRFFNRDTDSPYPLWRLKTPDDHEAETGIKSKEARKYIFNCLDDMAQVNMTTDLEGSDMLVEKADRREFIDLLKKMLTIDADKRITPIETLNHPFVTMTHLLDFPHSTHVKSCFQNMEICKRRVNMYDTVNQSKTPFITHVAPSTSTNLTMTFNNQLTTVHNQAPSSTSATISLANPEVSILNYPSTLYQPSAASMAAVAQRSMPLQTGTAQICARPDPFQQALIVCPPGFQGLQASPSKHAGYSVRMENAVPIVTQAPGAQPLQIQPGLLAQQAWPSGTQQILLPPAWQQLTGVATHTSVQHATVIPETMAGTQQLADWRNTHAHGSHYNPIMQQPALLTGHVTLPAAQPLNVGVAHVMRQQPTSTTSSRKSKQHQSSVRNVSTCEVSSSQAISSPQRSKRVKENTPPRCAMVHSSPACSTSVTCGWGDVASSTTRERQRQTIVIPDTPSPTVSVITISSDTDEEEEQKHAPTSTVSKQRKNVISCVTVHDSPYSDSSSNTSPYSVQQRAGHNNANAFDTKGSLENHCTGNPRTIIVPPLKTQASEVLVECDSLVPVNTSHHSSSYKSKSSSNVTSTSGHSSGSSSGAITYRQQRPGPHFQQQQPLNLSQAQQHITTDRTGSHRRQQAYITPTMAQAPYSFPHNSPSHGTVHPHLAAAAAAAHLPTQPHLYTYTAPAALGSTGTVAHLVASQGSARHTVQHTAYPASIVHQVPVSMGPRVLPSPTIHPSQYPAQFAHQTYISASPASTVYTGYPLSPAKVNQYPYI
Chain of MARK3 (P27448 whole entry): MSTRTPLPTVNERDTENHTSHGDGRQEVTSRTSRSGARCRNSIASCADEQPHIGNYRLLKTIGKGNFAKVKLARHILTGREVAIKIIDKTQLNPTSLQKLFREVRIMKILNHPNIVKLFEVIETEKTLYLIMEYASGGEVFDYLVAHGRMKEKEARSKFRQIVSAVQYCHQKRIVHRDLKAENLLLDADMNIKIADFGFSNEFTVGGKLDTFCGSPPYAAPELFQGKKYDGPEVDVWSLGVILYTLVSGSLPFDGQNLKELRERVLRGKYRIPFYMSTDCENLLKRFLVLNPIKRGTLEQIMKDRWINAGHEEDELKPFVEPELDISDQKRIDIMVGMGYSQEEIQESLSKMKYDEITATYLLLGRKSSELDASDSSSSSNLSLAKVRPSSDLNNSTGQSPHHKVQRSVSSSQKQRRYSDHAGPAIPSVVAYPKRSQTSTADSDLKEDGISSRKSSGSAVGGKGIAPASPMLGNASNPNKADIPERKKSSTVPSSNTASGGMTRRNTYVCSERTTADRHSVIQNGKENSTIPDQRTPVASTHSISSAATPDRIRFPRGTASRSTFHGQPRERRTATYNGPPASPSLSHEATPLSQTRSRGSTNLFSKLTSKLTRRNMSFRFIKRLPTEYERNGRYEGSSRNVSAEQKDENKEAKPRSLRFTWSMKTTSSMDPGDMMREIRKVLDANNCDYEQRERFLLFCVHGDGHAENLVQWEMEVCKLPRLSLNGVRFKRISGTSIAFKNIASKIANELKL
Chain of c-MET (P08581 whole entry): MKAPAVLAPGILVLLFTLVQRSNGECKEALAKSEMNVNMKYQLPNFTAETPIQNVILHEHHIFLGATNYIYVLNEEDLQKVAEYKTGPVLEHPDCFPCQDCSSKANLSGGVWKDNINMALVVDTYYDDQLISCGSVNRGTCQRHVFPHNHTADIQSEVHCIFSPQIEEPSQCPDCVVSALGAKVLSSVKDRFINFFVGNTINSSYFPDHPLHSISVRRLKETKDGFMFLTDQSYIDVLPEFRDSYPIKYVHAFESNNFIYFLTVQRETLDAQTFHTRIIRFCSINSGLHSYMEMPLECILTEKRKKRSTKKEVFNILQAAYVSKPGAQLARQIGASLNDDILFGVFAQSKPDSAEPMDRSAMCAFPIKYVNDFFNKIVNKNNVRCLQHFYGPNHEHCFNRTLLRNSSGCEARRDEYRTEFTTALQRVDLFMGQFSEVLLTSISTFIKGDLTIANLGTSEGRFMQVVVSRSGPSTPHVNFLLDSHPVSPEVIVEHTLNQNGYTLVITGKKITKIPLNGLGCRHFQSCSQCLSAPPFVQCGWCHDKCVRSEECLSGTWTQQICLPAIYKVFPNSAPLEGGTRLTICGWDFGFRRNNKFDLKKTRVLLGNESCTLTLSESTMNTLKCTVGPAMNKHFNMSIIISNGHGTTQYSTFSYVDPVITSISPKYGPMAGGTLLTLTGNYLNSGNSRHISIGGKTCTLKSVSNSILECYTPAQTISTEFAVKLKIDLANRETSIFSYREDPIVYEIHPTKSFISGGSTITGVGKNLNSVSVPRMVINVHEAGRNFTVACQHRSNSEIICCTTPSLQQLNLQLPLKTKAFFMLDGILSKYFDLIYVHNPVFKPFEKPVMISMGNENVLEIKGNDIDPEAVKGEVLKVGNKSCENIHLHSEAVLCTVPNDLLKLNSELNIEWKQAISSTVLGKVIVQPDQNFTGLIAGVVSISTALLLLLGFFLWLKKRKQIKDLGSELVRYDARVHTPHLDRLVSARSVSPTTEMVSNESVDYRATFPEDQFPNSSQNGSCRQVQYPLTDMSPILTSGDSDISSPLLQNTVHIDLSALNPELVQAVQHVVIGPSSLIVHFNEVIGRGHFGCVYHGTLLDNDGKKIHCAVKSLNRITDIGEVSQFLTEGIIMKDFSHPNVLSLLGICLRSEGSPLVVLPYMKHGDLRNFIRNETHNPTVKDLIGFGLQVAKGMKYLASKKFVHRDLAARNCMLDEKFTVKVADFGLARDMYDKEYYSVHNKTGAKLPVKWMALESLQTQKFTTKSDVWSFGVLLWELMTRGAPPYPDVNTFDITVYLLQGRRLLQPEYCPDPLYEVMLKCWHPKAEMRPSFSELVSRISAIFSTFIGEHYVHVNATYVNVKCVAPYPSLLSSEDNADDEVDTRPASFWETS
T3 sequence (P53779 whole entry): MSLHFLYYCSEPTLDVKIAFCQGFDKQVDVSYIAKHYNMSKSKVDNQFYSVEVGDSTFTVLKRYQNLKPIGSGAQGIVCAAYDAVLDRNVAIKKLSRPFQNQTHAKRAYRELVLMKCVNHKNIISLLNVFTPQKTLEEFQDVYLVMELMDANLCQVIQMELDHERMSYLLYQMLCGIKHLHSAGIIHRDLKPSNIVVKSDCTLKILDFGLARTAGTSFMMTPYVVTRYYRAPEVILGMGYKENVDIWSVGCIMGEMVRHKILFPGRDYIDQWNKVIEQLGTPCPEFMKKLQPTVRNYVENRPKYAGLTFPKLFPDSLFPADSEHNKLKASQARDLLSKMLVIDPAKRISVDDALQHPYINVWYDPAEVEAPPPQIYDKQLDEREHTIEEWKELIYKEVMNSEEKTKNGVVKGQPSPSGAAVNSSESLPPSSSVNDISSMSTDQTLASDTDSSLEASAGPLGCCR

COc1cc(N2CCN(C)CC2)c(C)cc1Nc1ncc(Br)c(Nc2cccnc2N(C)C)n1 [TP-5801]
remaining activity at 0.3 µM (HIPK2; [1]): 106%
remaining activity at 0.3 µM (HIPK2; [2]): 96.6%
remaining activity at 0.3 µM (CAMK2b; [1]): 64.8%
remaining activity at 0.3 µM (CAMK2b; [2]): 64%
remaining activity at 0.3 µM (ROCK2): 103%
remaining activity at 0.3 µM (DYRK3; [1]): 126%
remaining activity at 0.3 µM (DYRK3; [2]): 124%
remaining activity at 0.3 µM (TEC; [1]): 93.4%
remaining activity at 0.3 µM (TEC; [2]): 92.2%
remaining activity at 0.3 µM (c-MET; [1]): 104%
remaining activity at 0.3 µM (c-MET; [2]): 102%
remaining activity at 0.3 µM (CK1a1; [1]): 94.3%
remaining activity at 0.3 µM (CK1a1; [2]): 93.1%
remaining activity at 0.3 µM (TAOK3/JIK; [1]): 88.2%
remaining activity at 0.3 µM (TAOK3/JIK; [2]): 86.8%
remaining activity at 0.3 µM (TRKA; [1]): 93.3%
remaining activity at 0.3 µM (TRKA; [2]): 82.4%
remaining activity at 0.3 µM (JNK3; [1]): 81%
remaining activity at 0.3 µM (JNK3; [2]): 80.7%
remaining activity at 0.3 µM (IRR/INSRR; [1]): 66.7%
remaining activity at 0.3 µM (IRR/INSRR; [2]): 65.2%
remaining activity at 0.3 µM (NEK4): 122%
remaining activity at 0.3 µM (MARK3; [1]): 95.4%
remaining activity at 0.3 µM (MARK3; [2]): 91.7%
remaining activity at 0.3 µM (FAK/PTK2; [1]): 12.3%
remaining activity at 0.3 µM (FAK/PTK2; [2]): 11.4%
remaining activity at 0.3 µM (CK1epsilon; [1]): 96.5%
remaining activity at 0.3 µM (CK1epsilon; [2]): 94.7%
remaining activity at 0.3 µM (PKN1/PRK1; [1]): 91.8%
remaining activity at 0.3 µM (PKN1/PRK1; [2]): 90.3%
remaining activity at 0.3 µM (RSK1; [1]): 76.2%
remaining activity at 0.3 µM (RSK1; [2]): 74.2%
remaining activity at 0.3 µM (MEKK2; [1]): 86.8%
remaining activity at 0.3 µM (MEKK2; [2]): 81%
